Among the data in ChEMBL document CHEMBL1932944, “Hoiamide D, a marine cyanobacteria-derived inhibitor of p53/MDM2 interaction” (Bioorg Med Chem Lett, 2012) are IC50, EC50 and Activity values, retold here.

By IC50 is commonly meant the concentration needed to halve the response being measured. Read a high IC50 as weaker potency. In general, EC50 refers to the concentration giving half of the maximal effect. A higher EC50 goes with lower potency in that assay.

The nature of assay [1]: Inhibition of p53/HDM2 interaction.
The nature of assay [2]: Inhibition of human biotin-labelled p53/GST-tagged Hdm2 interaction preincubated for 20 mins before GST-tagged Hdm2 protein addition measured after 1 hr by HTR-FRET based competition assay.
In assay [3] the test system is NCI-H460. Kind of assay: Cytotoxicity against human H460 cells at 40 uM relative to control. It counts as functional.

In assay [1], `CCCCCCCC[C@H]1NC(=O)[C@@H](CC(C)C)NC(=O)[C@H]([C@@H](C)O)NC(=O)[C@@H](CC(C)C)NC(=O)[C@@H](CC(N)=O)NC(=O)[C@H](CC(N)=O)NC(=O)[C@H](C)NC(=O)[C@H]([C@@H](C)O)NC(=O)[C@H](CCCN2C=C3C(=O)[C@@](C)(OC(=O)CCC)C(=O)C(Cl)=C3[C@@H](O)[C@]23CCCO3)NC1=O` (relative stereo) gave an IC50 of 4.6 µM.

`C=C(C(=O)O)C(CCCCCC)C(=O)O` (centres undefined) [HEXYLITACONIC ACID] returned an IC50 in assay [1] of 230 µM. `CCC[C@@H](C)[C@H](O)[C@H](C)[C@@H](O)[C@@H](C)[C@H](Cc1nc(C2=N[C@@](C)(C3=N[C@@](C)(C(=O)N[C@H]([C@@H](O)[C@@H](C)C(=O)O)[C@@H](C)CC)CS3)CS2)cs1)OC` [HOIAMIDE D] came in with an EC50 in assay [2] of 4.5 µM. This compound also gave an Activity in assay [3] of 16%.
